# System: ob/ob mice
# Assay: Effect on food intake (and total motor activity) by single dose subcutaneous administration in ob/ob mice, operant test cage system (Eater meter)
# Format: in vivo, mouse
# Details: male ob/ob mice
# Excerpt: Effect on Food Intake of N,N-Dimethyl 2-[1-(benzenesulphonyl)-5-methoxy-1H-indol-3-yl]ethylamine by single dose subcutaneous administration in ob/ob mice.
# Obese (ob/ob) mouse is selected as the primary animal model for screening as this mutant mouse consumes high amounts of food resulting in a high signal to noise ratio. To further substantiate and compare efficacy data, the effect of the compounds on food consumption is also studied in wild type (C57BL/6J) mice. The amount of food consumed during 15 hours of infusion of compounds is recorded.
# Male mice (obese C57BL/6JBom-Lep^ob and lean wild-type C57B1/6JBom; Bomholtsgaard, Denmark) 8-9 weeks with an average body weight of 50 g (obese) and 25 g (lean) are used in all the studies. The animals are housed singly in cages at 23±1° C., 40-60% humidity and have free access to water and standard laboratory chow. The 12/12-h light/dark cycle is set to lights off at 5 p.m. The animals are conditioned for at least one week before start of study.
# The test compound, N,N-Dimethyl 2-[1-(benzenesulphonyl)-5-methoxy-1H-indol-3-yl]ethylamine, was dissolved in 25% Polyetylenglykol 400 (PEG 400) plus 0.1% Tween 80. +sodium actetate till pH 5. Doses of […] were used. […]
# The animals were divided into four groups containing 8 animals each and treated with vehicle plus three dosages of the test compound. Food consumption, total motor activity and water consumption were measured continuously for 22 h following start of recording in a computer-assisted operant test cage system (Eater meter). […] On the fourth day the animals were treated with test compound just before dark onset (5 pm) and data recorded cumulatively for 3 h, 6 h, 12 h and 21 h. Water consumption during 22 h was also measured by weighing the days before and after treatment.
# Animals were randomized according to body weight and treatment assigned in a cage- and room-wise order. […] Spillage at other time points were calculated proportionally to that of the 22 h spillage. The values are expressed as mean±SEM both as the change in gram from basal level and as percent of basal level. […]
compound,measurement,setting,value
"COc1ccc2c(c1)c(CCN(C)C)cn2S(=O)(=O)c1ccccc1 [N,N-Dimethyl 2-[1-(benzenesulphonyl)-5-methoxy-1H-indol-3-yl]ethylamine]",decrease of food intake,"single sc dose 10, 30, 50 mg salt/kg, at 6 h and 12 h following administration, significant, FIG. 1",15-20%
same,dose dependence of food intake effect,"single sc dose 10, 30, 50 mg salt/kg, all doses overlapped",not dose-dependent
same,approximate minimum effective dose for food intake,"single sc dose, borderline statistical significance of 15-20% inhibition",~10 mg/kg
